Test results published in patent US20070032537A1, “5-Substituted 2h-pyrazole-3-carboxylic acid derivatives as agonists for the acid receptor rup25 for the treatment of dyslipidemia and related diseases” (Arena Pharmaceuticals, Inc., priority 2003, published 2007).
Where two headings read alike, the source gives them in different places.

Assays:
hRUP25 [1] = target: T1, hRUP25 (Homo sapiens, UniProt Q8TDS4); experiment: Flash Plate adenylyl cyclase (cAMP) assay for agonists to hRUP25 in stably transfected CHO cells (clone 46); type: cell-based; settings: read-out: RUP25 (EC50)
T1 sequence (Q8TDS4 whole entry): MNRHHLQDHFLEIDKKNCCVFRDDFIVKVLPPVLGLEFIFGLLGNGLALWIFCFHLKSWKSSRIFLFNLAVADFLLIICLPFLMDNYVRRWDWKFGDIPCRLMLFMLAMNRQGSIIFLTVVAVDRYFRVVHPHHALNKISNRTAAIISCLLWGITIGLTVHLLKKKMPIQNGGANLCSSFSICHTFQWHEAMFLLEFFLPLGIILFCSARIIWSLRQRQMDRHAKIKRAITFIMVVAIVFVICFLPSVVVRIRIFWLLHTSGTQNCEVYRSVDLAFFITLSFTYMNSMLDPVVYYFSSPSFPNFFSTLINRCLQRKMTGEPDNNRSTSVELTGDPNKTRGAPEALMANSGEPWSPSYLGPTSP
Description: A modified Flash Plate™ Adenylyl Cyclase kit (New England Nuclear; Cat. No. SMP004A) is used for direct identification of candidate compounds as agonists to hRUP25 in accordance with the following protocol:
Stably transfected CHO cells (clone 46) were harvested from flasks via non-enzymatic means. The cells were washed in PBS and resuspended in the manufacturer's Assay Buffer. Live cells were counted using a hemacytometer and Trypan blue exclusion, and the cell concentration was adjusted to 2×10^6 cells/ml. cAMP standards and Detection Buffer (comprising 2 μCi of tracer [^125I]-cAMP (100 μl) to 11 ml Detection Buffer) were prepared and maintained in accordance with the manufacturer's instructions. Candidate compounds identified as per above (if frozen, thawed at room temperature) were added to their respective wells (preferably wells of a 96-well plate) at increasing concentrations (3 μl/well; 12 μM final assay concentration). To these wells, 100,000 cells in 50 μl of Assay Buffer were added and the mixture was then incubated for 30 minutes at room temperature, with gentle shaking. Following the incubation, 100 μl of Detection Buffer was added to each well, followed by incubation for 2-24 hours. Plates were counted in a Wallac MicroBeta™ plate reader using “Prot. #31” (as per manufacturer instructions).

[2] = test system: adipocyte primary cultures derived from human subcutaneous fat; settings: read-out: EC50, inhibition of isoproterenol induced lipolysis
Description: (§1) Lipolysis assays were done following the isolation of adipocytes from-rat or human. The source of fat from rats was the epididymal fat and from humans was either subcutaneous or omental. Cells were isolated following collagenase digestion and floatation. An elevation of intracellular cAMP levels and concomitant activation of lipolysis via hormone sensitive lipase was accomplished using isoproterenol, forskolin, 3-isobutyl-1-methyl-xanthine (IBMX) or a combination thereof at concentrations and times determined empirically and depending on the source of tissue. […] Data was analyzed using Excel and PrismGraph.

hRUP25 [3] = target: T1, hRUP25; experiment: cell-based
[4] = test system: adipocyte primary cultures derived from human subcutaneous fat; experiment: cells; settings: read-out: EC50, inhibition of isoproterenol induced lipolysis
Description: as §1

[5] = test system: rat epidimal fat derived adipocytes
Description: as §1

In the case of `CSCc1cc(C(=O)O)[nH]n1` [Compound 48, 5-Methylsulfanylmethyl-2H-pyrazole-3-carboxylic acid], the EC50 (hRUP25 [1]) is reported as 4.3 µM.

With `COCc1cc(C(=O)O)[nH]n1` [Compound 63, 5-Methoxymethyl-2H-pyrazole-3-carboxylic acid] the EC50 (hRUP25 [1]) was 7.9 µM.

With `c1cncc(-c2nn[nH]n2)c1` [Compound P-3-T, 3-tetrazole-5-pyridine] the EC50 [2] was 0.218 µM.

In the case of `CN1CCCC1c1cccnc1` (stereo not shown) [nicotine], the EC50 (hRUP25 [3]) is reported as 9.8 µM.

In the case of `O=C(O)c1cccnc1` [nicotinic acid, pyridine-3-carboxylic acid], the EC50 [4] is reported as 0.716 µM, the “inhibition of isoproterenol induced lipolysis” value ([5]; 10 μM) is reported as “inhibiting isoproterenol induced lipolysis” and the “dose-dependence of inhibition of isoproterenol induced lipolysis” value ([5]; increasing concentrations) is reported as “dose-dependent inhibition”.
